#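 Tested at 5 concentrations; 48 h exposure; 96-well plates; endpoints linearly interpolated, else capped at highest concentration. Abbreviation: GI50, concentration required for 50% inhibition of growth. TGI marks complete inhibition of growth.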
# Legend:
# Test in all cases: NCI-60 cell line screen, 48 h
# [1] = system: SK-MEL-5 melanoma
# [2] = system: EKVX NSCLC
# [3] = system: TK-10 renal
# [4] = system: OVCAR-4 ovarian
# [5] = system: SK-OV-3 ovarian
# [6] = system: DU-145 prostate
# [7] = system: SF-295 CNS
# [8] = system: SK-MEL-28 melanoma
# [9] = system: MDA-MB-231 breast
# [10] = system: NCI/ADR-RES ovarian
# [11] = system: M14 melanoma
# [12] = system: HCT-15 colon
# [13] = system: SF-268 CNS
# [14] = system: T-47D breast
# [15] = system: ACHN renal
# [16] = system: SNB-75 CNS
# [17] = system: A549 NSCLC
# [18] = system: SK-MEL-2 melanoma
# [19] = system: UACC-257 melanoma
# [20] = system: SW-620 colon
# [21] = system: U251 CNS
# [22] = system: SF-539 CNS
# [23] = system: MOLT-4 leukemia
# [24] = system: SNB-19 CNS
# [25] = system: PC-3 prostate
# [26] = system: HOP-62 NSCLC
# [27] = system: SN12C renal
# [28] = system: OVCAR-3 ovarian
# [29] = system: K-562 leukemia
# [30] = system: RXF 393 renal
# [31] = system: NCI-H23 lung
# [32] = system: KM12 colon
# [33] = system: COLO 205 colon
# [34] = system: LOX IMVI melanoma
# [35] = system: UACC-62 melanoma
# [36] = system: MDA-MB-435
# [37] = system: UO-31 renal
# [38] = system: SR leukemia
# [39] = system: HS 578T breast
# [40] = system: HOP-92 NSCLC
# [41] = system: CAKI-1 renal
# [42] = system: A498 renal
# [43] = system: OVCAR-5 ovarian
# [44] = system: CCRF-CEM leukemia
# [45] = system: IGROV1 ovarian
# [46] = system: MDA-N
# [47] = system: HCC-2998 colon
# [48] = system: RPMI-8226 leukemia
# [49] = system: 786-0 renal
# [50] = system: HCT-116 colon
# [51] = system: NCI-H460 lung
# [52] = system: MALME-3M melanoma
# [53] = system: OVCAR-8 ovarian
# [54] = system: HL-60(TB) leukemia
# [55] = system: NCI-H226 lung
# [56] = system: HT29 colon
# [57] = system: MCF7 breast
# [58] = system: NCI-H522 lung
# [59] = system: BT-549 breast
smiles,measurement,setting,value
O=C(O)C1C(C(=O)O)C2(Cl)C(Cl)=C(Cl)C1(Cl)C2(Cl)Cl.[Cd] (stereo not drawn),GI50,[1],1.37 µM
same,TGI,[1],5.63 µM
same,GI50,[2],19.9 µM
same,TGI,[2],35.6 µM
same,GI50,[3],19 µM
same,TGI,[3],34.7 µM
same,GI50,[4],14.9 µM
same,TGI,[4],37.5 µM
same,GI50,[5],19.6 µM
same,TGI,[5],36.2 µM
same,GI50,[6],17.8 µM
same,TGI,[6],34.5 µM
same,GI50,[7],> 100 µM
same,TGI,[7],> 100 µM
same,GI50,[8],24.1 µM
same,TGI,[8],54.7 µM
same,GI50,[9],20.9 µM
same,TGI,[9],42.4 µM
same,GI50,[10],28.6 µM
same,TGI,[10],80.3 µM
same,GI50,[11],19.2 µM
same,TGI,[11],38.9 µM
same,GI50,[12],21.4 µM
same,TGI,[12],46.6 µM
same,GI50,[13],18.1 µM
same,TGI,[13],36.8 µM
same,GI50,[14],11.4 µM
same,TGI,[14],28.1 µM
same,GI50,[15],21.3 µM
same,TGI,[15],43.9 µM
same,GI50,[16],10.7 µM
same,TGI,[16],26.4 µM
same,GI50,[17],18.7 µM
same,TGI,[17],39 µM
same,GI50,[18],9.22 µM
same,TGI,[18],26.8 µM
same,GI50,[19],15.5 µM
same,TGI,[19],30.7 µM
same,GI50,[20],23.1 µM
same,TGI,[20],77.1 µM
same,GI50,[21],11.2 µM
same,TGI,[21],24.9 µM
same,GI50,[22],3.66 µM
same,TGI,[22],11.7 µM
same,GI50,[23],22 µM
same,TGI,[23],60.9 µM
same,GI50,[24],40 µM
same,TGI,[24],> 100 µM
same,GI50,[25],15.3 µM
same,TGI,[25],29.7 µM
same,GI50,[26],22.7 µM
same,TGI,[26],48.6 µM
same,GI50,[27],18.4 µM
same,TGI,[27],36.1 µM
same,GI50,[28],7.81 µM
same,TGI,[28],19.7 µM
same,GI50,[29],16.3 µM
same,TGI,[29],51.8 µM
same,GI50,[30],13.7 µM
same,TGI,[30],30.5 µM
same,GI50,[31],2.62 µM
same,TGI,[31],9.17 µM
same,GI50,[32],16.9 µM
same,TGI,[32],37.5 µM
same,GI50,[33],20.5 µM
same,TGI,[33],38.6 µM
same,GI50,[34],16.8 µM
same,TGI,[34],33.5 µM
same,GI50,[35],3.84 µM
same,TGI,[35],15.4 µM
same,GI50,[36],7.61 µM
same,TGI,[36],25.2 µM
same,GI50,[37],20.1 µM
same,TGI,[37],39.3 µM
same,GI50,[38],2.8 µM
same,TGI,[38],32.7 µM
same,GI50,[39],23.5 µM
same,TGI,[39],> 87 µM
same,GI50,[40],19.2 µM
same,TGI,[40],34.8 µM
same,GI50,[41],17.8 µM
same,TGI,[41],34.4 µM
same,GI50,[42],> 100 µM
same,TGI,[42],> 100 µM
same,GI50,[43],18.2 µM
same,TGI,[43],32.9 µM
same,GI50,[44],16.5 µM
same,TGI,[44],61.4 µM
same,GI50,[45],17.7 µM
same,TGI,[45],34.2 µM
same,GI50,[46],8.5 µM
same,TGI,[46],22.6 µM
same,GI50,[47],22.6 µM
same,TGI,[47],47.7 µM
same,GI50,[48],6.64 µM
same,TGI,[48],48.4 µM
same,GI50,[49],8.59 µM
same,TGI,[49],22 µM
same,GI50,[50],17.5 µM
same,TGI,[50],32.5 µM
same,GI50,[51],3.71 µM
same,TGI,[51],18 µM
same,GI50,[52],2.33 µM
same,TGI,[52],7.05 µM
same,GI50,[53],28.8 µM
same,TGI,[53],> 86.6 µM
same,GI50,[54],28.4 µM
same,TGI,[54],72.1 µM
same,GI50,[55],34.9 µM
same,TGI,[55],> 66.7 µM
same,GI50,[56],18.4 µM
same,TGI,[56],35.9 µM
same,GI50,[57],17.3 µM
same,TGI,[57],35.9 µM
same,GI50,[58],0.412 µM
same,TGI,[58],1.78 µM
same,GI50,[59],1.33 µM
same,TGI,[59],2.74 µM

# Source: PubChem BioAssay (NCI)
